Source: US20240025900A1, “TETRACYCLIC COMPOUNDS AS DGK INHIBITORS” (Incyte Corporation, priority 2022, published 2024)

What was measured:
DGKα = DGKα (Homo sapiens (Human), UniProt P23743); assay: In vitro DGKα inhibition assay (ADP-Glo); assay type: biochemical; settings: His-tagged human recombinant DGKα 0.1 nM, 50 μM ATP, 20 μM DLG
Procedure: (§1) The DGKα and DGKζ biochemical reactions were performed using His-tagged human recombinant enzymes (Signal Chem, DGKα, #D21-10BH; DGKζ, #D30-10H)) and DLG (Dilauroyl-sn-glycerol) lipid substrate (Signal Chem, #D430-59). ADP-Glo assay was performed using ADP-Glo™ kinase Assay kit (Promega, #V9104). The reactions were carried out in assay buffer containing 40 mM Tris, pH 7.5, 0.1% CHAPS, 0.1% Prionex, 40 mM NaCl, 5 mM MgCl2, 1 mM CaCl2, and 1 mM DTT. DGKα reactions contained 0.1 nM DGKα, 50 μM ATP, and 20 μM DLG. And DGKζ reactions contained 0.4 nM DGKζ, 30 μM ATP, and 20 μM DLG.
(§2) For compound inhibition studies, 40 nL test compound in DMSO was added to wells of white polystyrene plates in 384-well (Greiner, #784075) or 1536-well format (Greiner, #782075). Compounds were added with top concentration of 2 mM with 11 point, 3-fold dilution series. Enzyme solution (contains 2×DGK enzyme concentration in 1× assay buffer) was added to the plate in 2 μL/well volume, followed by 2 μL/well of substrate solution (contains 2×concentration of ATP and DLG substrate in 1× assay buffer). Plates were then centrifuged for 1 min at 1200 RPM and sealed or lidded. For 4 μL reaction volume, test compounds were therefore diluted 100× to final top concentration of 20 μM. After 90 minute incubation, reactions were quenched by addition of 2 μL/well Promega ADP-Glo Reagent, followed by centrifugation and lidding. After 60 min incubation, 2 μL/well Promega Kinase Detection Reagent was added, plates centrifuged, and incubated for 30 min. Plates were then read using Luminescence method on BMG PHERAstar FSX plate reader. Percent inhibition was calculated and IC50s were determined using 4-parameter fit in Genedata Screener. Labcyte Echo acoustic dispenser was used for compound addition, and Formulatrix Tempest liquid handler was used for all reagent dispenses.

DGKζ = DGKζ (Homo sapiens (Human), UniProt Q13574); assay: In vitro DGKζ inhibition assay (ADP-Glo); assay type: biochemical; settings: His-tagged human recombinant DGKζ 0.4 nM, 30 μM ATP, 20 μM DLG
Procedure: as §1, §2

Chain of DGKζ (Q13574 whole entry): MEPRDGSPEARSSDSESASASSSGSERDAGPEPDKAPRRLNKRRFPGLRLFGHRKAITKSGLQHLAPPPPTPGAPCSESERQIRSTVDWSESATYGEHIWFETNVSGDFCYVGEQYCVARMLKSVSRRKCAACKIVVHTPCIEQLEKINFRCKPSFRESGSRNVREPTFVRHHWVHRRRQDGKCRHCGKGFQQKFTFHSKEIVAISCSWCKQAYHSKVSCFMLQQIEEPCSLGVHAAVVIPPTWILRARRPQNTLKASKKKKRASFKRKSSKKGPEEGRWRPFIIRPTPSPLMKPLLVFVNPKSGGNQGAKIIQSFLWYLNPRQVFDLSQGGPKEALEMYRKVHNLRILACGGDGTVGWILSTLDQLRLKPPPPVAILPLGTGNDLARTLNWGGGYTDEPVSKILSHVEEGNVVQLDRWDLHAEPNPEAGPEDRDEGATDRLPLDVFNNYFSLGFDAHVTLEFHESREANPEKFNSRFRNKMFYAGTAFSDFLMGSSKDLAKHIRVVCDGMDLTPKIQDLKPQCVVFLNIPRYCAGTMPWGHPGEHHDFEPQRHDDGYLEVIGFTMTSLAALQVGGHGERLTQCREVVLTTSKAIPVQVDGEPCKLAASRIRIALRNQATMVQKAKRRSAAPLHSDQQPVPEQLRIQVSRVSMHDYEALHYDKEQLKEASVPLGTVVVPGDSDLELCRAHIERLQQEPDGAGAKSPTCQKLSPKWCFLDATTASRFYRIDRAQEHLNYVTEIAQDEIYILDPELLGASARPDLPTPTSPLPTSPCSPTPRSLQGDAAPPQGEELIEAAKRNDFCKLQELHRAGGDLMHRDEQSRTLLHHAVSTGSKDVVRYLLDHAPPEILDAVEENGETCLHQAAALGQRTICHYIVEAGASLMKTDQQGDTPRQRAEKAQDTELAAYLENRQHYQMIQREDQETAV
Chain of DGKα (P23743 whole entry): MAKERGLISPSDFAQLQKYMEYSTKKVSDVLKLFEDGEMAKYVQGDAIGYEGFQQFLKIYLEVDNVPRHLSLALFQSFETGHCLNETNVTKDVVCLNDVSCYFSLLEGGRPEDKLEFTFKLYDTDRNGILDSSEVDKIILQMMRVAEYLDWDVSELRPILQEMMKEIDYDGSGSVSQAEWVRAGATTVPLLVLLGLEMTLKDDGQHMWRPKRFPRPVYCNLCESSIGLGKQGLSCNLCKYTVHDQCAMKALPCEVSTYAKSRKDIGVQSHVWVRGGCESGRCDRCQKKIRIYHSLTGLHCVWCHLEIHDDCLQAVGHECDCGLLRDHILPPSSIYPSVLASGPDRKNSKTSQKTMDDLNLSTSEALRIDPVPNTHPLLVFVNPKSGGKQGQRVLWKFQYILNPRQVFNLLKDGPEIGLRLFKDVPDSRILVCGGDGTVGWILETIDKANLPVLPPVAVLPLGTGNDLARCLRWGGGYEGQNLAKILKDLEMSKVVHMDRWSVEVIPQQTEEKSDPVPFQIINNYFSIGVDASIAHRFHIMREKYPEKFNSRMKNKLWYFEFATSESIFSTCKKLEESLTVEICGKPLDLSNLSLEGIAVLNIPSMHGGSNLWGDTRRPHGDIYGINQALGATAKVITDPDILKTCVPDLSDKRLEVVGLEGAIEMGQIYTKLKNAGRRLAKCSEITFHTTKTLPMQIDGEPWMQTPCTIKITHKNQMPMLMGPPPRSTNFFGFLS

SMILES	IC50 (DGKα) [nM]	IC50 (DGKζ) [nM]
CN1C(=O)CC2CN(C(c3ccc(F)cc3)c3ccc(F)cc3)CCN2c2c1c(=O)n(C)c1ccc(C#N)nc21 (single isomer, unassigned) [Example 1, 11-(Bis(4-fluorophenyl)methyl)-5,7-dimethyl-6,8-dioxo-5,6,7,8,9,9a,10,11,12,13-decahydropyrazino[1′,2′: 4,5][1,4]diazepino[2,3-c][1,5]naphthyridine-2-carbonitrile]	≤ 40	200 to 2000
CN1C(=O)CC2CN(C(c3ccc(F)cc3)c3ccc(F)cc3)CCN2c2c1c(=O)n(C)c1ccc(C#N)nc21 (single isomer, unassigned) [Example 2, 11-(Bis(4-fluorophenyl)methyl)-5,7-dimethyl-6,8-dioxo-5,6,7,8,9,9a,10,11,12,13-decahydropyrazino[1′,2′: 4,5][1,4]diazepino[2,3-c][1,5]naphthyridine-2-carbonitrile]	40 to 200	≤ 40
Cn1c(=O)c2c(c3nc(C#N)ccc31)N1CCN(C(c3ccc(F)cc3)c3ccc(F)cc3)C[C@@H]1COC2=O [Example 3, (R)-11-(Bis(4-fluorophenyl)methyl)-5-methyl-6,7-dioxo-5,7,9,9a,10,11,12,13-octahydro-6H-pyrazino[2′,1′:3,4][1,4]oxazepino[6,5-c][1,5]naphthyridine-2-carbonitrile]	≤ 40	≤ 40
Cn1c(=O)c2c(c3nc(CC#N)ccc31)N1CCN(C(c3ccc(F)cc3)c3ccc(F)cc3)C[C@@H]1COC2=O [Example 4, (R)-2-(11-(Bis(4-fluorophenyl)methyl)-5-methyl-6,7-dioxo-5,7,9,9a,10,11,12,13-octahydro-6H-pyrazino[2′,1′:3,4][1,4]oxazepino[6,5-c][1,5]naphthyridin-2-yl)acetonitrile]	≤ 40	≤ 40
Cn1c(=O)c2c(c3nc(CC#N)cnc31)N1CCN(C(c3ccc(F)cc3)c3ccc(F)cc3)C[C@@H]1COC2=O [Example 5, (R)-2-(11-(Bis(4-fluorophenyl)methyl)-5-methyl-6,7-dioxo-5,7,9,9a,10,11,12,13-octahydro-6H-pyrazino[2,1-c]pyrazino[2′,3′: 5,6]pyrido[4,3-e][1,4]oxazepin-2-yl)acetonitrile]	40 to 200	40 to 200
Cn1c(=O)c2c(c3nc(C#N)ccc31)N1CCN(C(c3ccc(F)cc3)c3ccc(F)cc3)C[C@H]1COC2=O [Example 6, (S)-11-(Bis(4-fluorophenyl)methyl)-5-methyl-6,7-dioxo-5,7,9,9a,10,11,12,13-octahydro-6H-pyrazino[2′,1′:3,4][1,4]oxazepino[6,5-c][1,5]naphthyridine-2-carbonitrile]	≤ 40	≤ 40
C[C@@H]1CN2c3c(c(=O)n(C)c4ccc(C#N)nc34)C(=O)OC[C@H]2CN1C(c1ccc(F)cc1)c1ccc(F)cc1 [Example 7, (9aR,12R)-11-(Bis(4-fluorophenyl)methyl)-5,12-dimethyl-6,7-dioxo-5,7,9,9a,10,11,12,13-octahydro-6H-pyrazino[2′,1′:3,4][1,4]oxazepino[6,5-c][1,5]naphthyridine-2-carbonitrile]	≤ 40	200 to 2000
Cn1c(=O)c2c(c3cc(CC#N)ccc31)N1CCN(C(c3ccc(F)cc3)c3ccc(F)cc3)C[C@@H]1COC2=O [Example 8, (R)-2-(3-(Bis(4-fluorophenyl)methyl)-9-methyl-7,8-dioxo-1,2,3,4,4a,5,8,9-octahydro-7H-pyrazino[2′,1′:3,4][1,4]oxazepino[6,5-c]quinolin-12-yl)acetonitrile]	–	40 to 200
Cn1c(=O)c2c(c3ncc(C#N)cc31)N1CCN(C(c3ccc(F)cc3)c3ccc(F)cc3)C[C@@H]1COC2=O [Example 9, (R)-11-(Bis(4-fluorophenyl)methyl)-5-methyl-6,7-dioxo-5,7,9,9a,10,11,12,13-octahydro-6H-pyrazino[2′,1′:3,4][1,4]oxazepino[6,5-c][1,5]naphthyridine-3-carbonitrile]	≤ 40	> 2000
Cn1c(=O)c2c(c3ncc(CC#N)cc31)N1CCN(C(c3ccc(F)cc3)c3ccc(F)cc3)C[C@@H]1COC2=O [Example 10, (R)-2-(11-(Bis(4-fluorophenyl)methyl)-5-methyl-6,7-dioxo-5,7,9,9a,10,11,12,13-octahydro-6H-pyrazino[2′,1′:3,4][1,4]oxazepino[6,5-c][1,5]naphthyridin-3-yl)acetonitrile]	–	> 2000
